Experiment: xn = mol fraction of the nth substance listed
Settings: 100 kPa

CCCC[N+]1(C)CCCC1.O=S(=O)([N-]S(=O)(=O)C(F)(F)F)C(F)(F)F + CCOC(=O)OCC
Settings | electrical conductivity [S/m] | viscosity [mPa·s]
293.15 K, x1 = 0.1506 | 0.443 | 2.76
293.15 K, x1 = 0.25 | 0.584 | –
293.15 K, x1 = 0.2973 | 0.613 | 6.62
293.15 K, x1 = 0.349 | 0.608 | 8.69
293.15 K, x1 = 0.4 | 0.531 | 11.2
293.15 K, x1 = 0.6002 | 0.34 | 29.01
293.15 K, x1 = 0.6985 | 0.288 | 41
293.15 K, x1 = 0.8006 | 0.254 | 55.9
293.15 K, x1 = 1 | 0.216 | 98
298.15 K, x1 = 0.1001 | 0.372 | 1.65
298.15 K, x1 = 0.1506 | 0.494 | 2.49
298.15 K, x1 = 0.2 | 0.586 | 3.49
298.15 K, x1 = 0.25 | 0.646 | –
298.15 K, x1 = 0.2973 | 0.701 | 5.86
298.15 K, x1 = 0.349 | 0.693 | 7.74
298.15 K, x1 = 0.4 | 0.622 | 9.95
298.15 K, x1 = 0.4998 | 0.514 | 15.45
298.15 K, x1 = 0.6002 | 0.425 | 24.22
298.15 K, x1 = 0.6985 | 0.365 | 34.1
298.15 K, x1 = 0.8006 | 0.329 | 46
298.15 K, x1 = 0.8934 | 0.3 | 58.6
298.15 K, x1 = 1 | 0.275 | 76.6
303.15 K, x1 = 0.1001 | 0.401 | 1.5
303.15 K, x1 = 0.1506 | 0.543 | 2.26
303.15 K, x1 = 0.2973 | 0.785 | 5.21
303.15 K, x1 = 0.349 | 0.782 | 7
303.15 K, x1 = 0.4 | 0.714 | 8.78
303.15 K, x1 = 0.4998 | 0.601 | 13.25
303.15 K, x1 = 0.6002 | 0.509 | 20.02
303.15 K, x1 = 0.6985 | 0.438 | 28.53
303.15 K, x1 = 0.8006 | 0.395 | 38
303.15 K, x1 = 0.8934 | 0.371 | 46.9
303.15 K, x1 = 1 | 0.34 | 61.6
308.15 K, x1 = 0.1001 | 0.436 | 1.35
308.15 K, x1 = 0.1506 | 0.591 | 2.03
308.15 K, x1 = 0.2 | 0.703 | 2.85
308.15 K, x1 = 0.25 | 0.8 | –
308.15 K, x1 = 0.2973 | 0.876 | 4.79
308.15 K, x1 = 0.349 | 0.867 | 6.3
308.15 K, x1 = 0.4 | 0.803 | 7.89
308.15 K, x1 = 0.6002 | 0.612 | 17
308.15 K, x1 = 0.6985 | 0.534 | 23.82
308.15 K, x1 = 0.8006 | 0.485 | 32.02
308.15 K, x1 = 1 | 0.411 | 50.8
313.15 K, x1 = 0.1506 | 0.637 | 1.83
313.15 K, x1 = 0.2 | 0.766 | 2.56
313.15 K, x1 = 0.2973 | 0.968 | 4.33
313.15 K, x1 = 0.349 | 0.957 | 5.76
313.15 K, x1 = 0.4 | 0.908 | 7.11
313.15 K, x1 = 0.4998 | 0.804 | 10.46
313.15 K, x1 = 0.6002 | 0.73 | 14.69
313.15 K, x1 = 0.6985 | 0.649 | 19.99
313.15 K, x1 = 0.8006 | 0.588 | 26
313.15 K, x1 = 0.8934 | 0.535 | 31.7
313.15 K, x1 = 1 | 0.491 | 41.6
318.15 K, x1 = 0.1001 | 0.501 | 1.09
318.15 K, x1 = 0.1506 | 0.684 | 1.64
318.15 K, x1 = 0.2 | 0.83 | 2.28
318.15 K, x1 = 0.25 | 1 | –
318.15 K, x1 = 0.2973 | 1.05 | 3.9
318.15 K, x1 = 0.349 | 1.05 | 5.21
318.15 K, x1 = 0.4 | 1 | 6.45
318.15 K, x1 = 0.4998 | 0.903 | 9.01
318.15 K, x1 = 0.6002 | 0.831 | 13
318.15 K, x1 = 0.6985 | 0.746 | 17.01
318.15 K, x1 = 0.8006 | 0.673 | 22
318.15 K, x1 = 0.8934 | 0.62 | 26.75
318.15 K, x1 = 1 | 0.581 | 34.6
323.15 K, x1 = 0.1506 | 0.742 | 1.46
323.15 K, x1 = 0.2 | 0.901 | 2.05
323.15 K, x1 = 0.25 | 1.1 | –
323.15 K, x1 = 0.2973 | 1.14 | 3.52
323.15 K, x1 = 0.349 | 1.15 | 4.63
323.15 K, x1 = 0.4 | 1.1 | 5.79
323.15 K, x1 = 0.4998 | 1.02 | 8.05
323.15 K, x1 = 0.6002 | 0.935 | 11.01
323.15 K, x1 = 0.6985 | 0.865 | 14.4
323.15 K, x1 = 0.8934 | 0.745 | 22.8
323.15 K, x1 = 1 | 0.681 | 29.46

CCOC(=O)OCC + CCCC[N+]1(C)CCCC1.O=S(=O)([N-]S(=O)(=O)C(F)(F)F)C(F)(F)F
x2 = 0
Settings | viscosity [mPa·s]
293.15 K | 0.8
298.15 K | 0.75
303.15 K | 0.7
308.15 K | 0.65
313.15 K | 0.61
318.15 K | 0.58

Reference: a compilation of properties of binary mixtures (doi:10.1021/acs.jced.9b00738)
